The source of these data is patent US10300071B2, “Compositions and methods for inhibition of mycobacteria” (priority 2014, dated 2019).

The term pIC50 denotes the negative decadic logarithm of the IC50, by convention in mol/L. By half-life is commonly meant the time in which the quantity being followed falls by half.

pIC50: −log10 of the molar value. In brackets after ≈: the same amount, converted by molar mass. Read-outs that look alike come from different tables or passages of the source.

A short description of data set [1]: Pharmacokinetic studies in mice, plasma concentration after gavage (LC/MS). As to conditions: for peak plasma concentration, 30 minutes after gavage / peak plasma concentration, 90 minutes after gavage: 100 mg/kg gavage, PEG or canola oil; for Plasma conc. 24 Hrs. after 1st dose / Plasma conc. 24 Hrs. after last dose: oral, 1 dose/day x 4 days, NZ-331 200 mg/kg, NZ-332 and NZ-369 100 mg/kg; for peak plasma concentration (FIG. 6A): two doses 200 mg/kg 8 h apart, approx. 12 hours after first dose, 4 hours after second.

The target of another data set is Mtb AccD6 (Mycobacterium tuberculosis, UniProt P9WQH5). Put plainly: biochemical. The format is biochemical.
The next data set has as its system Mtb strain mc^2-7000. Put plainly: microbe, parasite or virus in culture. The format is cell-based, Mycobacterium tuberculosis. As to conditions: Mycobacterium tuberculosis, 144 h.
A further data set has as its system plasma protein. The experiment in a line: Plasma protein binding assay. Here is the method: Protein plasma binding assays were conducted in female mice for each of the arylphenoxypropionate derivatives quizalofop-p, quizalofop-p-ethyl, fenoxaprop-p, and fenoxaprop-p-ethyl.
The nature of a further data set: in vivo. Particulars: rat.
For data set [2] the following is noted: rat, in vivo.
The conditions of data set [3]: CPRC; cited from earlier work.
Data set [4] is described as follows: Additional pharmacokinetic studies in rats.
The conditions of data set [5]: 1-year feeding study, dogs; cited from earlier work.
For data set [6] the following is noted: mammals, within three days; cited from earlier work.
For data set [7] the following is noted: cited from earlier work.
Setting [8] is: 300 μM malonyl-CoA, inhibitor 10 μM to 2000 μM, read-out: IC50.
Where [9] appears, read: 6 days incubation at 37° C., resazurin, read on the 7th day, read-out: MIC.

Sequence of Mtb AccD6 (P9WQH5 whole entry, looked up): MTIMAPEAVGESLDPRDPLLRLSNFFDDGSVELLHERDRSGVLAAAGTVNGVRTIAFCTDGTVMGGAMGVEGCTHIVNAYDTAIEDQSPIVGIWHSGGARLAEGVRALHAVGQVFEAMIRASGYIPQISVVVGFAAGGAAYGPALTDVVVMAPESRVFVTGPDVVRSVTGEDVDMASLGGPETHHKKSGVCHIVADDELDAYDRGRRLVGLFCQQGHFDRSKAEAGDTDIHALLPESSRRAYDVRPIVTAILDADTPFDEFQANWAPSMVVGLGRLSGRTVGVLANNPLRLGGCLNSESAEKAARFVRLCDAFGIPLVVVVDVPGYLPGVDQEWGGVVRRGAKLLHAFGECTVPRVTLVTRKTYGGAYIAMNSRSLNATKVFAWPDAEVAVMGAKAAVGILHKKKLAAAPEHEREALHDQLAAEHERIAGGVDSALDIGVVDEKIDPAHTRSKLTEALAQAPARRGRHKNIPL

With `CC(C)NC(=O)Nc1ccc(Oc2nc3ccc(Cl)cc3s2)cc1` [NZ-331, 1-{4-[(6-chloro-1,3-benzothiazol-2-yl)oxy]phenyl}-3-(propan-2-yl)urea], in data set [1], the “peak plasma concentration, 30 minutes after gavage” value is on record as “approximately 6 μL/mg” and the “peak plasma concentration, 90 minutes after gavage” value amounted to 9. Besides, in data set [1] (canola oil), the “Plasma conc. 24 Hrs. after 1st dose” value is 17.7 (±2.7) μg/ml and the “Plasma conc. 24 Hrs. after last dose” value was 27.1 (±13.7) μg/ml. In addition, the “peak plasma concentration (FIG. 6A)” value in data set [1] (canola oil, gavage) was “approximately 23 μL/mg”. For the same compound, the “peak plasma concentration (FIG. 11), 24 hours” value in data set [1] (two doses 200 mg/kg 8 hours apart, canola oil, 24 hours after gavage) is listed as 34.5. In addition, in [1] (two doses 200 mg/kg, canola oil, gavage, approx. 24 hours after first dose, 16 hours after second), the “corrected peak plasma concentration (FIG. 6B)” value is given as “approximately 138 μL/mg”. In addition, the pIC50 at Mtb AccD6 (setting [8]) is 6.10. The “concentrations at which not toxic, s. cerevisiae cytotoxicity” value in the data set on S. cerevisiae is not below 100 µM. The “concentrations at which not toxic, human fibroblast cytotoxicity” value with human fibroblast was not below 100 µM. For the same compound, in the data set on Mtb strain mc^2-7000 (setting [9]), the MIC turned out to be 0.8 µM (≈ 0.289 µg/mL).
For the compound `CC(C)NC(=O)Nc1ccc(Oc2nc3ccc(F)cc3s2)cc1` [NZ-332, 1-{4-[(6-fluoro-1,3-benzothiazol-2-yl)oxy]phenyl}-3-(propan-2-yl)urea], in data set [1], the “peak plasma concentration, 30 minutes after gavage” value was “approximately 9 μL/mg” and the “peak plasma concentration, 90 minutes after gavage” value is recorded as 13. In addition, in data set [1] (canola oil), the “Plasma conc. 24 Hrs. after 1st dose” value is 2.2 (±0.6) μg/ml and the “Plasma conc. 24 Hrs. after last dose” value is 1.8 (±0.2) μg/ml. Besides, in data set [1] (canola oil, gavage), the “peak plasma concentration (FIG. 6A)” value is “approximately 34 μL/mg”. On Mtb AccD6 (setting [8]), the pIC50 was 6.19. Besides, in the data set with S. cerevisiae, the “concentrations at which not toxic, s. cerevisiae cytotoxicity” value was not below 100 µM. In addition, in the data set on human fibroblast, the “concentrations at which not toxic, human fibroblast cytotoxicity” value is not below 100 µM. Also, the MIC with Mtb strain mc^2-7000 (setting [9]) came out at 0.8 µM (≈ 0.276 µg/mL).
`CNC(=O)C(C)c1ccc(Oc2nc3ccc(Cl)cc3s2)cc1` (stereo not drawn) [NZ-369, 2-{4-[(6-chloro-1,3-benzothiazol-2-yl)oxy]phenyl}-N-methylpropanamide]: in [1] (canola oil), the “Plasma conc. 24 Hrs. after 1st dose” value is 0.74 (±0.09) μg/ml and the “Plasma conc. 24 Hrs. after last dose” value is 0.57 (±0.07) μg/ml. Moreover, in [1] (single dose 200 mg/kg, canola oil, gavage, 2 hours after gavage), the “peak plasma concentration (FIG. 10)” value was 27.4. For the same compound, the “peak plasma concentration (FIG. 11), 2 hours” value in [1] (two doses 200 mg/kg 8 hours apart, canola oil, 2 hours after gavage) amounted to 27.4. The negative-log IC50 (pIC50) on Mtb AccD6 (setting [8]) was 6.06. Further, the “concentrations at which not toxic, s. cerevisiae cytotoxicity” value in the data set on S. cerevisiae is not below 100 µM. Moreover, in the data set with human fibroblast, the “concentrations at which not toxic, human fibroblast cytotoxicity” value was not below 100 µM. Further, the MIC with Mtb strain mc^2-7000 (setting [9]) lay in the range of 0.73 to 0.98 µM (≈ 0.253 to 0.34 µg/mL).
As for `CC(Oc1ccc(Oc2nc3ccc(Cl)cc3o2)cc1)C(=O)O` (stereo not drawn) [fenoxaprop-p, 2-{4-[(6-chloro-1,3-benzoxazol-2-yl)oxy]phenoxy}propanoic acid, reference compound], the pIC50 on Mtb AccD6 (setting [8]) was 5.82. Besides, in the data set with plasma protein (female, mouse), the “Percentage of Compound Bound” value stood at 98.58% and the “Percentage of Compound Recovered” value came to 76%. In addition, the “concentrations at which not toxic, human fibroblast cytotoxicity” value in the data set on human fibroblast was not below 100 µM. For the same compound, the MIC in the data set on Mtb strain mc^2-7000 (setting [9]) came out at 25 µM (≈ 8.34 µg/mL).
Turning to `CCOC(=O)[C@@H](C)Oc1ccc(Oc2nc3ccc(Cl)cc3o2)cc1` [fenoxaprop-p-ethyl, ethyl (2R)-2-{4-[(6-chloro-1,3-benzoxazol-2-yl)oxy]phenoxy}propanoate], in the data set on plasma protein, the “stability under assay conditions (plasma esterase activity)” value is “not stable under assay conditions”. The compound also had a half-life in “in vivo” (initial phase) of 9 to 11 h. The half-life in the data set “in vivo” (terminal phase) was 68 to 75 h. Besides, the “concentrations at which not toxic, human fibroblast cytotoxicity” value in the data set with human fibroblast is not below 100 µM. Moreover, the oral absorption entry in [2] is “absorbed rapidly”. In data set [2] (po), the “minimum rate of absorption (urinary excretion including cage washes and residues in tissues/organs)” value is reported as “at least 40 % of the administered dose”; the “time at which test substance was already found in the blood” value is 15 min; the “time of peak (maximum) blood concentration” value was in the range of 6 to 8 h. In the data set on Mtb strain mc^2-7000, this compound gave an MIC of 1.56 µM (≈ 0.564 µg/mL).
With `C[C@@H](Oc1ccc(Oc2cnc3cc(Cl)ccc3n2)cc1)C(=O)O` [quizalofop-p, (2R)-2-{4-[(6-chloroquinoxalin-2-yl)oxy]phenoxy}propanoic acid, reference compound], the “peak plasma concentration of quizalofop-p” value in data set [1] (quizalofop-p-ethyl or quizalofop-p in carboxymethylcellulose or canola oil, gavage 50 mg/kg, 8 hours after gavage) is 35. Moreover, the pIC50 on Mtb AccD6 was 6.10. In the data set with plasma protein (mouse plasma), the “Percentage of Compound Bound” value is 96.8% and the “Percentage of Compound Recovered” value is recorded as 90%.
Consider `CCOC(=O)[C@@H](C)Oc1ccc(Oc2cnc3cc(Cl)ccc3n2)cc1` [quizalofop-p-ethyl, ethyl (2R)-2-{4-[(6-chloroquinoxalin-2-yl)oxy]phenoxy}propanoate], for which, in [1] (gavage 50 mg/kg), the “concentration of quizalofop-p-ethyl detected at all collection timepoints” value was “much lower than the concentration of quizalofop-p detected”. For the same compound, at Mtb AccD6 (setting [8]), the negative-log IC50 (pIC50) was 5.64. Moreover, the “stability under assay conditions (plasma esterase activity)” value in the data set on plasma protein (plasma) is on record as “not stable under assay conditions”. Further, the carcinogen classification result in data set [3] is listed as “Group D carcinogen”. For the same compound, the “time to convert from ester to acid” value in data set [4] is approximately 3 h. The “time of peak (maximum) blood concentration” value in data set [4] (oral) was “six to nine”. Moreover, the oral absorption result in data set [4] (oral route) is reported as “absorbed to a considerable extent by the oral route”. Further, in [5], the “doses causing zero observed effects” value was “up to 10 mg/kg/day”. For the same compound, the MIC in the data set with Mtb strain mc^2-7000 (setting [9]) lay in the range of 0.68 to 1.56 µM (≈ 0.254 to 0.582 µg/mL). Further, in [6], the “share of a single oral dose eliminated in urine” value is listed as “more than 90%”. Also, in data set [7], the “LD50, rabbits” value is “greater than 2,000 mg/kg”.
